Source: patent publication US9714247B2, “Multiple kinase pathway inhibitors” (Mannkind Corporation, priority 2012, dated 2017)
Like-named read-outs stand apart in the source and are kept apart here.

Experiments:
DoHH2 = assay: CellTiter-Glo proliferation/viability assay; assay type: cell-based, human; conditions: Homo sapiens, DOHH-2
Ramos = assay: CellTiter-Glo proliferation/viability assay; assay type: cell-based, human; conditions: Homo sapiens, Ramos, read-out: Ramos EC50
Lyn [1] = molecular target: T1, Lyn (Homo sapiens (Human), UniProt P07948); conditions: read-out: Lyn IC50
DoHH2 cells = conditions: treated 24 hours
Src [2] = molecular target: T2, Src (Homo sapiens (Human), UniProt P12931); assay: biochemical
BTK = BTK (Homo sapiens (Human), UniProt Q06187)
Src [3] = molecular target: T2, Src; conditions: read-out: Src IC50
Lyn [4] = molecular target: T1, Lyn; assay: biochemical
[5] = tested on: PLCγ2 phosphorylation in Ramos cells; assay: PLCγ2 phosphorylation by flow cytometry; assay type: cell-based, human; conditions: Homo sapiens, flow cytometry, anti-phospho PLCγ2 (Tyr1217), four concentrations, read-out: Inhibition of phosphorylation of PLC-γ2 EC50
Method: Ramos cells were cultured in RPMI 1640 media with 10% FBS and were starved overnight (18 h) in 1% FBS containing media and on the next day pretreated with inhibitor for 2 h before stimulation. Cells were stimulated to induce BTK network dependent signal transduction pathways using mouse anti-human IgM (final concentration 10 ug/ml; Invitrogen) antibodies and 3.3 mM H2O2 mixture for 2 minutes followed by F(Ab) fragment that cross-linked the anti-IgM antibody (final concentration 10 ug/ml), and 3.3 mM H2O2 for 8 minutes. Cell lysates were prepared in lysis buffer containing protease and phosphatase inhibitors, quantified using the BCA protein assay kit (Pierce) and used for Western blotting. Antibodies specifically targeted to the molecules of interest, PLCγ2 phosphorylated at Tyr1217 and total PLCγ2, (Cell Signaling Technology) were used in a standard Western blotting procedure.
PLCγ2 phosphorylation was also assessed by flow cytometry. Cells were similarly stimulated and following stimulation, Cytofix buffer (Becton Dickinson) was added, cells were centrifuged and the cell pellets incubated on ice with Phosflow perm buffer III (Becton Dickinson). These cell pellets were washed with Perm/Wash buffer (Becton Dickinson); resuspended and labeled for flow cytometry analysis in a staining mixture containing Perm/Wash buffer and PE-labeled anti-phosphoPCLγa2 (Tyr1217) antibody (Becton Dickinson). The samples were washed with Perm/Wash buffer and analyzed on a FACS Calibur flow cytometer using CellQuest Pro software. As mentioned for the Western blot experiments, phosphorylation of PLCγ2 at Tyr1217 along with Tyr753, Tyr759 and Tyr1197 is correlated with increased PLCγ2 activity. The readout for BTK network signaling was inhibition of phosphorylation of PLCγ2. Cells were gated to exclude dead or dying cells. Fluorescence signals from the antibody staining were plotted in logarithmic units and data was analyzed using Cellquest Pro software. […] An ED50 was calculated based on the geometric mean of fluorescence intensity observed for treatment for four different concentrations of the inhibitors (see Table 7 and FIG. 6). […] Thus treatment with amino naphthyridinones inhibits PLCγ2 phosphorylation consistent with inhibition of BTK and/or LYN activity.
Following stimulation, cells were prepared for analysis by flow cytometry as described above. In short, cells were fixed and permeabilized using Cytofix buffer, Phosflow perm buffer and Perm/Wash buffer (Becton Dickinson). The cells were stained with PE-labeled anti-phosphoPCLγ2 (Tyr759) antibody (Becton Dickinson) and analyzed on a FACS Calibur flow cytometer using CellQuest Pro software. […] Thus aminonaphthyridinones are useful for the indirect inhibition of PLCγ2 phosphorylation.

[6] = Table 4, DoHH2 cells, read-out: EC50 (Proliferation)

T1 sequence (P07948 whole entry): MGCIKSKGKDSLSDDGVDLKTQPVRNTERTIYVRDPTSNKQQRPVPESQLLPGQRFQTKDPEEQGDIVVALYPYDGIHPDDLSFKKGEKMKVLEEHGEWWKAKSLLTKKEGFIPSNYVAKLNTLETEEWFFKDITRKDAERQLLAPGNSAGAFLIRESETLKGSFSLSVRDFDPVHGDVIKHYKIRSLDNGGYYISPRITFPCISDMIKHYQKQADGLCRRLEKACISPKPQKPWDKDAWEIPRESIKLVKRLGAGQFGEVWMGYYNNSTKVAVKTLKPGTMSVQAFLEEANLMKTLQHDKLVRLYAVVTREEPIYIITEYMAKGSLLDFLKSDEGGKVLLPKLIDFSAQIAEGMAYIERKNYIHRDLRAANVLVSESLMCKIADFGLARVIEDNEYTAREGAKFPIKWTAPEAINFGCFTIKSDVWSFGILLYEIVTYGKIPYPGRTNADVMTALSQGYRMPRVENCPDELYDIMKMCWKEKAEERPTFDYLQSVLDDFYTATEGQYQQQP
Sequence of BTK (Q06187 whole entry): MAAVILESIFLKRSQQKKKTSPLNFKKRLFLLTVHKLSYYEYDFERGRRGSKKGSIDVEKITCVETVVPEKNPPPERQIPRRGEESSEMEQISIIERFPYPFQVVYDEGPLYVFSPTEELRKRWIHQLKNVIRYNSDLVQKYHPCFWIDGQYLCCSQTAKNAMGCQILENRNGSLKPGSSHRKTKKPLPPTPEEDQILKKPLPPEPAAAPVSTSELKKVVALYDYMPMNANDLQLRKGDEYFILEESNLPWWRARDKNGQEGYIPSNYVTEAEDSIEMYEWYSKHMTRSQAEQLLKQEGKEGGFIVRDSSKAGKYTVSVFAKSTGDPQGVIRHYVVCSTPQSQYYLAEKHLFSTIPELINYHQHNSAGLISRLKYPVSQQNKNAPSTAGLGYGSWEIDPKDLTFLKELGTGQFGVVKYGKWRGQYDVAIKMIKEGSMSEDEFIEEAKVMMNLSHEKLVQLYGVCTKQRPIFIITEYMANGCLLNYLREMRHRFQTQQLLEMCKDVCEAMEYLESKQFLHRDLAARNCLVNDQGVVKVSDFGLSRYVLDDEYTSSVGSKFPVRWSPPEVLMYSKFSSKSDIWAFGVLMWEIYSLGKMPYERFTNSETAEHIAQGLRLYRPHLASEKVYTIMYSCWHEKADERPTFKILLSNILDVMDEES
T2 sequence (P12931 whole entry, looked up): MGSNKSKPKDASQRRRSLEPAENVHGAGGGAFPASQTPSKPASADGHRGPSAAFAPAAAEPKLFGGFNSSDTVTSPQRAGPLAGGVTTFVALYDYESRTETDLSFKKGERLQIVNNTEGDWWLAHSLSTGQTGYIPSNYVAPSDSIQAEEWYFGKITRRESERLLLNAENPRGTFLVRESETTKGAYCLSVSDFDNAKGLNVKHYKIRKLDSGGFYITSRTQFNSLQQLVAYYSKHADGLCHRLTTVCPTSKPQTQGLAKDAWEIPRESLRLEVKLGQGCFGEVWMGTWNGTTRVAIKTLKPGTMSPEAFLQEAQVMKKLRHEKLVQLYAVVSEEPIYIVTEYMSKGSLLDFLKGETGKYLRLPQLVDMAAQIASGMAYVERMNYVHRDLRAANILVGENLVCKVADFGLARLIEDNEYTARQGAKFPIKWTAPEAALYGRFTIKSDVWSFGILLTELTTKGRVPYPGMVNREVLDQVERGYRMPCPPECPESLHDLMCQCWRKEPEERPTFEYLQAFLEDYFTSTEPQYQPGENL

Row | SMILES | EC50 (DoHH2; 48 hrs, read-out: DoHH2 EC50) [nM] | EC50 (DoHH2; [6]) [nM] | EC50 (Ramos; 48 hrs) [nM] | IC50 (Lyn [1]) [nM] | Effect on Cell Cycle (DoHH2 cells) | IC50 (Src [2]) [nM] | IC50 (BTK) [nM] | IC50 (Src [3]) [nM] | IC50 (BTK; read-out: BTK IC50) [nM] | EC50 (Ramos; 48 h) [nM] | IC50 (Lyn [4]) [nM] | IC50 (Lyn [4]; Lyn IC50) [nM] | EC50 [5] [nM]
1 | CCn1c(=O)c(-c2ccccc2)cc2cnc(Nc3nccs3)cc21 [Compound 42, 1-Ethyl-3-phenyl-7-(thiazol-2-ylamino)-1H-[1,6]naphthyridin-2-one] | < 1000 | < 1000 | < 1000 | > 5000 | G2 Arrest | 1000 to 5000 | 1000 to 5000 |  |  |  |  |  | 
2 | CCn1c(=O)c(-c2ccccc2)cc2cnc(Nc3ccc(F)cn3)cc21 [Compound 28, 1-Ethyl-7-(5-fluoro-pyridin-2-ylamino)-3-phenyl-1H-[1,6]naphthyridin-2-one] | 1000 to 10000 | 1000 to 10000 | 1000 to 10000 | > 5000 | No Arrest |  |  | > 5000 | > 5000 |  |  |  | 
3 | CCn1c(=O)c(I)cc2cnc(Nc3ccc(C)cn3)cc21 [Compound 89] | < 1000 | < 1000 | < 1000 | > 5000 | G1 Arrest |  |  | > 5000 | > 5000 |  |  |  | 
4 | CCN(CC)CCOc1ccc(Nc2cc3c(cn2)cc(C(C)C)c(=O)n3C2CCC2)nc1 [Compound 47, 1-Cyclobutyl-7-[5-(2-diethylamino-ethoxy)-pyridin-2-ylamino]-3-isopropyl-1H-[1,6]naphthyridin-2-one] |  |  |  |  | G1 Arrest |  |  |  |  |  |  |  | 
5 | CCn1c(=O)c(-c2ccccc2F)cc2cnc(Nc3ccc(C)cn3)cc21 [Compound 35, 1-ethyl-3-(2-fluorophenyl)-7-(5-methylpyridin-2-ylamino)-1,6-naphthyridin-2(1H)-one] | < 1000 | < 1000 |  | < 100 | G1 Arrest | 100 to 1000 | 100 to 1000 |  |  | > 10000 |  |  | 
6 | CCn1c(=O)c(-c2ccccc2)cc2cnc(Nc3ccc(O)cn3)cc21 [Compound 52, 1-Ethyl-7-(5-hydroxy-pyridin-2-ylamino)-3-phenyl-H-[1,6]naphthyridin-2-one] | 1000 to 10000 | 1000 to 10000 | > 10000 | 100 to 1000 | G1 Arrest |  | 100 to 1000 | < 100 | 100 to 1000 |  | 100 to 1000 |  | 
7 | CCN(CC)CCOc1ccc(Nc2cc3c(cn2)cc(-c2ccccc2)c(=O)n3CCN(C)C)nc1 [Compound 73, 7-(5-(2-(diethylamino)ethoxy)pyridin-2-ylamino)-1-(2-(dimethylamino)ethyl)-3-phenyl-1,6-naphthyridin-2(1H)-one] | < 1000 | < 1000 |  | 100 to 1000 | G1 Arrest | 100 to 1000 | 100 to 1000 |  | 100 to 1000 | 1000 to 10000 |  | 100 to 1000 | 
8 | O=c1c(-c2c(F)cccc2F)cc2cnc(Nc3ccc(F)cn3)cc2n1C1CCOC1 (stereo not drawn) [Compound 83, 3-(2,6-difluorophenyl)-7-((5-fluoropyridin-2-yl)amino)-1-(tetrahydrofuran-3-yl)-1,6-naphthyridin-2(1H)-one] | < 1000 |  |  | < 100 |  |  |  | < 100 |  | 1000 to 10000 |  |  | 450
9 | CCN(CC)CCOc1ccc(Nc2cc3c(cn2)cc(-c2ccccc2)c(=O)n3C2CCOC2)nc1 (stereo not drawn) [Compound 17, 7-((5-(2-(diethylamino)ethoxy)pyridin-2-yl)amino)-3-phenyl-1-(tetrahydrofuran-3-yl)-1,6-naphthyridin-2(1H)-one] | < 1000 | < 1000 |  |  | G1 Arrest | 100 to 1000 | 1000 to 5000 |  |  | 1000 to 10000 | 100 to 1000 |  | 
10 | CCn1c(=O)c(-c2ccccc2)cc2cnc(Nc3ncc(C)s3)cc21 [Compound 8, 1-Ethyl-7-(5-methyl-thiazol-2-ylamino)-3-phenyl-1H-[1,6]naphthyridin-2-one] | > 10000 | > 10000 |  |  | No Arrest | 1000 to 5000 | 1000 to 5000 |  |  | > 10000 | 100 to 1000 |  | 
11 | CCN(CC)CCOc1ccc(Nc2cc3c(cn2)cc(C(C)C)c(=O)n3C2CCCC2)nc1 [Compound 46, 1-Cyclopentyl-7-[5-(2-diethylamino-ethoxy)-pyridin-2-ylamino]-3-isopropyl-1H-[1,6]naphthyridin-2-one] | < 1000 | < 1000 | 1000 to 10000 | 100 to 1000 | G1 Arrest | 100 to 1000 |  |  |  |  | 100 to 1000 |  | 930
12 | O=c1c(-c2c(F)cccc2F)cc2cnc(Nc3ccc(F)cn3)cc2n1C1CCCC1 [Compound 77, 1-cyclopentyl-3-(2,6-difluorophenyl)-7-((5-fluoropyridin-2-yl)amino)-1,6-naphthyridin-2(1H)-one] | < 1000 | < 1000 | > 10000 | < 100 | G1 Arrest |  |  | < 100 |  |  |  |  | 
13 | CCn1c(=O)c(-c2ccccc2)cc2cnc(Nc3ccc(NCCO)cn3)cc21 [Compound 66, 1-Ethyl-7-[5-(2-hydroxy-ethylamino)-pyridin-2-ylamino]-3-phenyl-1H-[1,6]naphthyridin-2-one] | < 1000 | < 1000 |  | < 100 | G1 Arrest |  | 100 to 1000 | < 100 |  | 1000 to 10000 |  |  | 
14 | CCn1c(=O)c(-c2ccccc2)cc2cnc(Nc3ccc(NCCN(C)C)cn3)cc21 [Compound 67, 7-[5-(2-Dimethylamino-ethylamino)-pyridin-2-ylamino]-1-ethyl-3-phenyl-1H-[1,6]naphthyridin-2-one] | < 1000 | < 1000 | 1000 to 10000 | < 100 | G1 Arrest | 1000 to 5000 |  |  |  |  |  |  | 
15 | CCc1cc2cnc(Nc3ccc(C)cn3)cc2n(CC)c1=O [Compound 19, 1,3-Diethyl-7-(5-methyl-pyridin-2-ylamino)-1H-[1,6]naphthyridin-2-one] | 1000 to 10000 | 1000 to 10000 | 1000 to 10000 | > 5000 | No Arrest |  | 100 to 1000 | > 5000 |  |  |  |  | 
16 | CCn1c(=O)c(-c2ccccc2F)cc2cnc(Nc3ccc(F)cn3)cc21 [Compound 72, 1-ethyl-3-(2-fluorophenyl)-7-(5-fluoropyridin-2-ylamino)-1,6-naphthyridin-2 (1H)-one] | 1000 to 10000 | 1000 to 10000 |  |  | G1 Arrest | 1000 to 5000 | 1000 to 5000 |  |  | > 10000 | 100 to 1000 |  | 
17 | CN1CCC(n2c(=O)c(-c3c(F)cccc3F)cc3cnc(Nc4ccc(F)cn4)cc32)CC1 [Compound 79, 3-(2,6-difluorophenyl)-7-((5-fluoropyridin-2-yl)amino)-1-(1-methylpiperidin-4-yl)-1,6-naphthyridin-2(1H)-one] | < 1000 | < 1000 | 1000 to 10000 | < 100 | G1 Arrest |  |  | 2580 |  |  |  |  | 
18 | CCn1c(=O)c(C(C)(C)O)cc2cnc(Nc3ccc(C)cn3)cc21 [Compound 69] | > 10000 | > 10000 | > 10000 | > 5000 | No Arrest |  |  | < 100 | > 5000 |  |  |  | 
